In general, IC50 refers to the point on the concentration scale where inhibition reaches its midpoint.

phosphorylated active hERK2 enzyme, sequence (P28482 whole entry): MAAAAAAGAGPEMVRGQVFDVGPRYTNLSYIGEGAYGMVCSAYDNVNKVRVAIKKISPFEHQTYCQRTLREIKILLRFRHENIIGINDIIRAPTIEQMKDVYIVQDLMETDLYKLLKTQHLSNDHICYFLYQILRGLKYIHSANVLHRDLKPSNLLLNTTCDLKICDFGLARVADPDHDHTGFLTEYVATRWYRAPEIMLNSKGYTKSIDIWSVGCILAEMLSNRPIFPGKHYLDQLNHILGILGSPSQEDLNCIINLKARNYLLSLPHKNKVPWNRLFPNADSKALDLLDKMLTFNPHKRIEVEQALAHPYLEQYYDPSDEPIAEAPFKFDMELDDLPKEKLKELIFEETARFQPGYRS

The first assay addresses phosphorylated active hERK2 enzyme (Homo sapiens (Human), UniProt P28482).
Settings: not given
In turn, `C[C@@H](NC(=O)Nc1cc2cnn(CC3CCCC3)c2c(CO)n1)c1ccccc1` [Example 303, 1-[1-(cyclopentylmethyl)-7-(hydroxymethyl)-1H-pyrazolo[3,4-c]pyridin-5-yl]-3-[(1R)-1-phenylethyl]urea] gave a concentration for half-maximal inhibition (IC50) of 0.294 µM.

Staying with this assay, now noted: read-out: ERK2 IC50; IMAP-FP assay; 0.5 nM hERK2, 30 μM ATP; 10 point titration, 3 μM starting concentration.
Turning to `Cc1cc(-n2ncc3cc(NC(=O)N[C@H]4CN(C)C[C@@H]4[C@@H]4CCCOC4)ncc32)ccn1` [Example 24, 1-[1-(2-methylpyridin-4-yl)-1H-pyrazolo[3,4-c]pyridin-5-yl]-3-{(3R,4S)-1-methyl-4-[(3S)-tetrahydro-2H-pyran-3-yl]pyrrolidin-3-yl}urea], the IC50 was determined as 0.14 µM.

In the case of `C[C@@H](NC(=O)Nc1cc2cnn(-c3ccc(F)cc3)c2cn1)c1ccccn1` [Example 222, 1-[1-(4-fluorophenyl)-1H-pyrazolo[3,4-c]pyridin-5-yl]-3-[(1R)-1-pyridin-2-ylethyl]urea], the IC50 was found to be 0.00753 µM.

Turning to `C[C@@H](NC(=O)Nc1cc2cnn(-c3ccc(F)cc3)c2c(COCCN2CCOCC2)n1)c1ccccc1` [Example 244, 1-{1-(4-fluorophenyl)-7-[(2-morpholin-4-ylethoxy)methyl]-1H-pyrazolo[3,4-c]pyridin-5-y1}-3-[(1R)-1-phenylethyl]urea], the IC50 was 0.188 µM.

For the compound `COc1cccc(F)c1CN1CCC[C@@H](NC(=O)Nc2cc3cnn(-c4ccnc(C)c4)c3cn2)C1` [Example 56, 1-[(3R)-1-(2-fluoro-6-methoxybenzyl)piperidin-3-yl]-3-[1-(2-methylpyridin-4-yl)-1H-pyrazolo[3,4-c]pyridin-5-yl]urea], the IC50 stood at 0.000524 µM.

For `Cc1cc(-n2ncc3cc(NC(=O)N[C@H]4CN(C)C[C@@H]4c4ccc(C5CC5)s4)ncc32)ccn1` [Example 164, 1-[(3R,4S)-4-(5-cyclopropylthiophen-2-yl)-1-methylpyrrolidin-3-yl]-3-[1-(2-methylpyridin-4-yl)-1H-pyrazolo[3,4-c]pyridin-5-yl]urea], the half-inhibitory concentration (IC50) was 0.00113 µM.

For `Cc1cc(-n2ncc3cc(NC(=O)N[C@H]4CN(C)C5(COC5)[C@@H]4c4ccccc4)ncc32)ccn1` [Example 202, 1-[(7R,8R)-5-methyl-8-phenyl-2-oxa-5-azaspiro[3.4]oct-7-yl]-3-[1-(2-methylpyridin-4-yl)-1H-pyrazolo[3,4-c]pyridin-5-yl]urea], the IC50 stood at 0.3 µM.

On to `Cc1cc(-n2ncc3cc(NC(=O)NC(CN)c4ccccc4)ncc32)ccn1` (stereo not shown) [Example 62, 1-(2-amino-1-phenylethyl)-3-[1-(2-methylpyridin-4-yl)-1H-pyrazolo[3,4-c]pyridin-5-yl]urea], for which the IC50 was 0.000962 µM.

Consider `CO[C@@H]1CN(Cc2cccnc2)C[C@H]1NC(=O)Nc1cc2cnn(-c3ccnc(C)c3)c2cn1` [Example 262, 1-((3R,4R)-4-methoxy-1-(pyridin-3-ylmethyl)pyrrolidin-3-yl)-3-(1-(2-methylpyridin-4-yl)-1H-pyrazolo[3,4-c]pyridin-5-yl)urea], for which the IC50 worked out at 0.253 µM.

Take `CCn1ncc2cc(NC(=O)N[C@@H](c3ccccc3)C(C)(C)O)nc(OC)c21` [Example 257, 1-(1-ethyl-7-methoxy-1H-pyrazolo[3,4-c]pyridin-5-yl)-3-[(1S)-2-hydroxy-2-methyl-1-phenylpropyl]urea]: the IC50 is 0.0449 µM.

Take `Cc1cc(-n2ncc3cc(NC(=O)NC(C)c4csc(C)n4)ncc32)ccn1` (stereo not shown) [Example 128, 1-[1-(2-methylpyridin-4-yl)-1H-pyrazolo[3,4-c]pyridin-5-yl]-3-[1-(2-methyl-1,3-thiazol-4-yl)ethyl]urea]: the IC50 is 2.03 µM.

Consider `Cc1cc(-n2ncc3cc(NC(=O)N[C@H](C)c4ccccc4)nc(COCCN4CCOCC4)c32)ccn1` [Example 249, 1-{1-(2-methylpyridin-4-yl)-7-[(2-morpholin-4-ylethoxy)methyl]-1H-pyrazolo[3,4-c]pyridin-5-yl}-3-[(1R)-1-phenylethyl]urea], for which the IC50 was found to be 0.127 µM.

On to `Cc1cc(-n2ncc3cc(NC(=O)NC(CCN(C)C)c4ccccn4)ncc32)ccn1` (stereo not shown) [Example 72, 1-[3-(dimethylamino)-1-pyridin-2-ylpropyl]-3-[1-(2-methylpyridin-4-yl)-1H-pyrazolo[3,4-c]pyridin-5-yl]urea], for which the 50% inhibitory concentration (IC50) was determined as 0.0102 µM.

For `Cn1ncc2cc(NC(=O)N[C@@H](c3ccccc3)C(C)(C)O)ncc21` [Example 228, 1-[(1S)-2-hydroxy-2-methyl-1-phenylpropyl]-3-(1-methyl-1H-pyrazolo[3,4-c]pyridin-5-yl)urea], the IC50 was determined as 0.0369 µM.

For `COc1ccc(CNC(=O)Nc2cc3cnn(-c4ccncc4)c3cn2)cc1` [Example 9, 1-(4-methoxybenzyl)-3-(1-pyridin-4-yl-1H-pyrazolo[3,4-c]pyridin-5-yl)urea], the IC50 stood at 0.0053 µM.

Regarding `Cc1cc(-n2ncc3cc(NC(=O)N[C@H]4[C@H](c5ccccc5)CN(C)C45COC5)ncc32)ccn1` [Example 107, 1-[(7R,8S)-5-methyl-7-phenyl-2-oxa-5-azaspiro[3.4]oct-8-yl]-3-[1-(2-methylpyridin-4-yl)-1H-pyrazolo[3,4-c]pyridin-5-yl)urea], the IC50 turned out to be 0.00903 µM.

Regarding `O=C(NCc1ccc(F)cc1)Nc1cc2cnn(-c3ccncc3)c2cn1` [Example 6, 1-(4-fluorobenzyl)-3-(1-pyridin-4-yl-1H-pyrazolo[3,4-c]pyridin-5-yl)urea], the IC50 was 0.0018 µM.

With `Cc1cc(-n2ncc3cc(NC(=O)NCCOCc4ccccc4)ncc32)ccn1` [Example 95, 1-[2-(benzyloxy)ethyl]-3-[1-(2-methylpyridin-4-yl)-1H-pyrazolo[3,4-c]pyridin-5-yl]urea], the IC50 was found to be 0.0054 µM.

With `C[C@@H](NC(=O)Nc1cc2cnn(C3CCNC(=O)C3)c2cn1)c1ccc(F)cc1` (stereo partly drawn) [Example 233, 1-[(1R)-1-(4-fluorophenyl)ethyl]-3-[1-(2-oxopiperidin-4-yl)-1H-pyrazolo[3,4-c]pyridin-5-yl]urea], the concentration for half-maximal inhibition (IC50) came to 1.23 µM.

Consider `Cc1cc(-n2ncc3cc(NC(=O)NC4CNCC(c5ccccc5)C4)ncc32)ccn1` (stereo not shown) [Example 288, 1-[1-(2-methylpyridin-4-yl)-1H-pyrazolo[3,4-c]pyridin-5-yl]-3-(5-phenylpiperidin-3-yl)urea], for which the 50% inhibitory concentration (IC50) amounted to 0.0105 µM.

Take `Cc1cc(-n2ncc3cc(NC(=O)NCc4ccc(C(C)(C)O)cc4)ncc32)ccn1` [Example 86, 1-[4-(1-hydroxy-1-methylethyl)benzyl]-3-[1-(2-methylpyridin-4-yl)-1H-pyrazolo[3,4-c]pyridin-5-yl)urea]: the IC50 came out at 0.731 µM.

Consider `Cc1cc(-n2ncc3cc(NC(=O)NC4CCN(c5ccccc5)CC4)ncc32)ccn1` [Example 78, 1-[1-(2-methylpyridin-4-yl)-1H-pyrazolo[3,4-c]pyridin-5-yl]-3-(1-phenylpiperidin-4-yl)urea], for which the concentration for half-maximal inhibition (IC50) turned out to be 1.74 µM.

Turning to `Cc1cc(-n2ncc3cc(NC(=O)NC4CCN(Cc5c(F)cccc5F)C4)ncc32)ccn1` (stereo not shown) [Example 271, 1-[1-(2,6-difluorobenzyl)pyrrolidin-3-yl]-3-[1-(2-methylpyridin-4-yl)-1H-pyrazolo[3,4-c]pyridin-5-yl]urea], the IC50 came out at 0.000997 µM.

With `Cn1ncc2cc(NC(=O)NC3CCCN(Cc4c(F)cccc4F)C3)ncc21` (stereo not shown) [Example 236, 1-[1-(2,6-difluorobenzyl)piperidin-3-yl]-3-(1-methyl-1H-pyrazolo[3,4-c]pyridin-5-yl)urea], the IC50 was found to be 0.531 µM.

For `Cc1cc(-n2ncc3cc(NC(=O)NC4CCC(c5ccccc5)C4)ncc32)ccn1` (stereo not shown) [Example 178, 1-[1-(2-methylpyridin-4-yl)-1H-pyrazolo[3,4-c]pyridin-5-yl]-3-(3-phenylcyclopentyl)urea], the IC50 is 0.0371 µM.

In the case of `Cc1cc(-n2ncc3c(F)c(NC(=O)N[C@H](C)c4ccccc4)ncc32)ccn1` [Example 224, (R)-1-(4-Fluoro-1-(2-methylpyridin-4-yl)-1H-pyrazolo[3,4-c]pyridin-5-yl)-3-(1-phenylethyl)urea], the IC50 stood at 0.00826 µM.

Regarding `CNC(=O)[C@@H](NC(=O)Nc1cc2cnn(-c3ccnc(C)c3)c2cn1)c1ccccc1` [Example 142, (2S)-N-methyl-2-({[1-(2-methylpyridin-4-yl)-1H-pyrazolo[3,4-c]pyridin-5-yl]carbamoyl}amino)-2-phenylethanamide], the half-inhibitory concentration (IC50) came to 0.00109 µM.

On to `COCc1nc(NC(=O)N[C@H](C)c2ccccc2)cc2cnn(-c3ccnc(C)c3)c12` [Example 247, 1-[7-(methoxymethyl)-1-(2-methylpyridin-4-yl)-1H-pyrazolo[3,4-c]pyridin-5-yl]-3-[(1R)-1-phenylethyl]urea], for which the concentration for half-maximal inhibition (IC50) was 0.0111 µM.

With `Cc1cc(-n2ncc3cc(NC(=O)N[C@H](C)c4ccccc4)nc(CNCCN(C)C)c32)ccn1` [Example 322, 1-[7-({[2-(dimethylamino)ethyl]amino}methyl)-1-(2-methylpyridin-4-yl)-1H-pyrazolo[3,4-c]pyridin-5-yl]-3-[(1R)-1-phenylethyl]urea], the half-inhibitory concentration (IC50) amounted to 0.0866 µM.

In the case of `Cc1cc(-n2ncc3cc(NC(=O)NCCC(F)(F)F)ncc32)ccn1` [Example 88, 1-[1-(2-methylpyridin-4-yl)-1H-pyrazolo[3,4-c]pyridin-5-yl]-3-(3,3,3-trifluoropropyl)urea], the IC50 came to 0.0463 µM.

As for `Cc1cc(-n2ncc3cc(NC(=O)N[C@@H]4CN(C5CCC5)C[C@H]4c4ccccc4)ncc32)ccn1` [Example 196, 1-[(3S,4R)-1-cyclobutyl-4-phenylpyrrolidin-3-yl]-3-[1-(2-methylpyridin-4-yl)-1H-pyrazolo[3,4-c]pyridin-5-yl]urea], the IC50 came to 0.354 µM.

Regarding `Cc1cc(-n2ncc3cc(NC(=O)NCC4(c5ccccc5)CCOCC4)ncc32)ccn1` [Example 52, 1-[1-(2-methylpyridin-4-yl)-1H-pyrazolo[3,4-c]pyridin-5-yl]-3-[(4-phenyltetrahydro-2H-pyran-4-yl)methyl]urea], the half-inhibitory concentration (IC50) stood at 0.00709 µM.

Regarding `Cc1cc(-n2ncc3cc(NC(=O)NC4CN(C)CC4c4ccccc4)ncc32)ccn1` (stereo not shown) [Example 57, 1-(1-methyl-4-phenylpyrrolidin-3-yl)-3-[1-(2-methylpyridin-4-yl)-1H-pyrazolo[3,4-c]pyridin-5-yl]urea], the half-inhibitory concentration (IC50) was determined as 0.000823 µM.

Consider `COC[C@@H](NC(=O)Nc1cc2cnn(-c3ccnc(C)c3)c2cn1)c1ccc(F)cc1` [Example 33, 1-[(1S)-1-(4-fluorophenyl)-2-methoxyethyl]-3-[1-(2-methylpyridin-4-yl)-1H-pyrazolo[3,4-c]pyridin-5-yl]urea], for which the IC50 was 0.59 µM.

(Values after patent US9884048B2, “ERK inhibitors” (Merck Sharp & Dohme Corp., priority 2014, dated 2018).)
